Assay results: patent US9096608B2, “Pharmaceutically active pyrazolo-triazine derivatives” (LEAD DISCOVERY CENTER GMBH, priority 2012, dated 2015)

How the values were obtained:
Format in all cases: biochemical
CDK2/CycA = target: T1, CDK2/CycA (Homo sapiens, UniProt P24941); test: CDK2 Enzymatic Activity Assay (Lance Kinase Activity Assay, FRET); details: Table 5B; symbols per IC50 ranges of b615
T1 construct: purchased Proqinase
Method in brief: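 Compounds serially diluted 1:3 over 8 steps, run with CDK2/CycA, ULight-MBP substrate and ATP in HEPES pH 7.5 buffer for 1 h at room temperature. LANCE TR-FRET detection with Eu-anti-phospho-MBP after EDTA stop; IC50 from sigmoidal dose-response curves.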

CDK7/CycH/Mat1 = target: T2, CDK7/CycH/Mat1 (Homo sapiens, UniProt P50613); test: CDK7 Enzymatic Activity Assay (Lance Kinase Activity Assay, FRET); details: Table 5A; 25 μM ATP final; read-out: CDK7: IC50 [mM] for CDK7 inhibition (the above defined ranges apply)
T2 construct: purchased Carna
T2 sequence (P50613 whole entry): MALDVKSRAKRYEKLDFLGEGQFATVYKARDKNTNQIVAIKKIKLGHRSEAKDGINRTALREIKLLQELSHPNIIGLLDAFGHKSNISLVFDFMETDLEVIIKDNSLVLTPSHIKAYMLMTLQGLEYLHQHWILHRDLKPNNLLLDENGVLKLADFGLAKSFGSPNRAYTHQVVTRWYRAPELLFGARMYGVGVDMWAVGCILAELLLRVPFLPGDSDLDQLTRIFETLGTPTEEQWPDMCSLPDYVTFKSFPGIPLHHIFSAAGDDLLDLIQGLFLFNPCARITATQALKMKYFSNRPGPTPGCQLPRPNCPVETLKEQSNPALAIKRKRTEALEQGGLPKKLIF
T2 sequence (P51946 whole entry partner): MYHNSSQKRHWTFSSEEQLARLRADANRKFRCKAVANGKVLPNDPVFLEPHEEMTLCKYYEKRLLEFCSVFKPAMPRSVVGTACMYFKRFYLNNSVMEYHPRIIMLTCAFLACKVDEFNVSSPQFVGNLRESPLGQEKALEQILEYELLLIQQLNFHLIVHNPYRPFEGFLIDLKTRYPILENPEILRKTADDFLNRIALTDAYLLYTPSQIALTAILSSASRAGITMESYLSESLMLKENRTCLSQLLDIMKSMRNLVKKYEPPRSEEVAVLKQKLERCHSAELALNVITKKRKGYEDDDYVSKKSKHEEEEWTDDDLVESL
T2 sequence (P51948 whole entry partner): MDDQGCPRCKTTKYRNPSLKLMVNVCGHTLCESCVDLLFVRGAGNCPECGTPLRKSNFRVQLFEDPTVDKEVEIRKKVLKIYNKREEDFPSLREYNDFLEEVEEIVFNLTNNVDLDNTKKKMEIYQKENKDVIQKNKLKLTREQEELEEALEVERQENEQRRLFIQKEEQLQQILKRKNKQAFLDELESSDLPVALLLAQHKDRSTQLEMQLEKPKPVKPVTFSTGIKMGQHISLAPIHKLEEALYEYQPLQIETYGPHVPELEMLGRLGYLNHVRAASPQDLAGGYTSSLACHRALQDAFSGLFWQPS
Method in brief: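 TR-FRET (LANCE) kinase assay with ULight-MBP peptide substrate and Eu-labelled anti-phospho antibody; compounds in 8-point 1:3 series in HEPES 50 mM pH 7.5, MgCl2 10 mM, EGTA 1 mM, DTT 2 mM, 0.01% Tween-20.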

CDK9/Cyclin T1 = target: T3, CDK9/Cyclin T1 (Homo sapiens, UniProt P50750); test: CDK9 Enzymatic Activity Assay (Lance Kinase Activity Assay, FRET); details: Table 5B; symbols per IC50 ranges of b615
T3 construct: purchased Invitrogen
T3 sequence (P50750 whole entry): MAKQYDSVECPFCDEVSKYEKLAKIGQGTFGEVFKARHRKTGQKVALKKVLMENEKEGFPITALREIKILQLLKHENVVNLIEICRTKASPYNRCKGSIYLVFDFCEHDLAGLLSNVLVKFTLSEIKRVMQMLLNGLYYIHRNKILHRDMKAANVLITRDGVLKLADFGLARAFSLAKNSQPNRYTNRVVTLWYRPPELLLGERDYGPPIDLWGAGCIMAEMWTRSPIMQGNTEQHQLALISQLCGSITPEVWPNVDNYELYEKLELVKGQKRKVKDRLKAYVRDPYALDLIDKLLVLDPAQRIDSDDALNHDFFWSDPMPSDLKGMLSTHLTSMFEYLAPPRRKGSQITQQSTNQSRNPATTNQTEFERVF
T3 sequence (O60563 whole entry partner): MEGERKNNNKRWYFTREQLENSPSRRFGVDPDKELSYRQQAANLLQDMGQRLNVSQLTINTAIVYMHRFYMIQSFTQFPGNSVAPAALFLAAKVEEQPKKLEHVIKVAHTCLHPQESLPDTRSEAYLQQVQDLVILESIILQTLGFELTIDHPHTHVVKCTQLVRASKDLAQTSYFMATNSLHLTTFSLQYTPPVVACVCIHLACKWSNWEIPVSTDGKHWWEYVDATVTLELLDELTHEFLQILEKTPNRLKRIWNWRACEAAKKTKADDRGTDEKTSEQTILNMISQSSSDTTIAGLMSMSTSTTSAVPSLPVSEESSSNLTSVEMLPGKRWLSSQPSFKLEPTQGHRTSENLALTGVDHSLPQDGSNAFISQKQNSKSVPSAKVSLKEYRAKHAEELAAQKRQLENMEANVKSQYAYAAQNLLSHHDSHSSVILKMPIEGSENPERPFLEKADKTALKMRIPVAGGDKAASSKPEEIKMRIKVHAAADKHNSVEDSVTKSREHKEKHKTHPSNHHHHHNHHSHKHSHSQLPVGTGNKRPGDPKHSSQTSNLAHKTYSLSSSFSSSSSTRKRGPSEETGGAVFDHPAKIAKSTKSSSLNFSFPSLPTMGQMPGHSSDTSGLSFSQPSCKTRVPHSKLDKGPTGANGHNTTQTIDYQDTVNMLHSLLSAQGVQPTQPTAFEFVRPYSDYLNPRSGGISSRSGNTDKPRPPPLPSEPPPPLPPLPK
Method in brief: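 TR-FRET detection of ULight-MBP substrate phosphorylation by CDK9/cyclin T1 using a Eu-anti-phospho-MBP antibody, in 50 mM HEPES pH 7.5, 10 mM MgCl2, 1 mM EGTA, 2 mM DTT, 0.01% Tween-20. Kinase reaction 1 h at room temperature, then EDTA detection buffer for 1 h before reading.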

CDK2 IC50 range class (CDK2/CycA)	IC50 (CDK7/CycH/Mat1) [nM]	CDK9: Selectivity of CDK7 inhibition over CDK9 inhibition [fold] (CDK9/Cyclin T1)	SMILES
+++ (IC50>2500 nM)	> 100	+++ (IC50>2500 nM)	COCCN1CCN(Cc2nc(N[C@@H](C)c3cccc(OC)c3)n3ncc(C(C)C)c3n2)CC1 [(XXIX-11), (S)-8-isopropyl-2-((4-(2-methoxyethyl)piperazin-1-yl)methyl)-N-(1-(3-methoxyphenyl)ethyl)pyrazolo[1,5-a][1,3,5]triazin-4-amine]
+++ (IC50>2500 nM)	> 100	+++ (IC50>2500 nM)	COc1cccc([C@H](C)Nc2nc(SC3CCNCC3)nc3c(C(C)C)cnn23)c1 [(X-e), (S)-8-isopropyl-N-(1-(3-methoxyphenyl)ethyl)-2-(piperidin-4-ylthio)pyrazolo[1,5-a][1,3,5]triazin-4-amine]
+++ (IC50>2500 nM)	< 10	+++ (IC50>2500 nM)	COc1cccc([C@H](C)Nc2nc(O[C@@H]3CCCNC3)nc3c(C(C)C)cnn23)c1 [(VII-r), 8-isopropyl-N-((S)-1-(3-methoxyphenyl)ethyl)-2-((R)-piperidin-3-yloxy)pyrazolo[1,5-a][1,3,5]triazin-4-amine]
